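Dose response: 5 concentrations. Exposure: 48 h. Format: 96-well plates. Endpoint: linear interpolation; highest concentration if not reached. GI50: concentration for 50% inhibition of growth. TGI: total growth inhibition.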
Assays:
Experiment in all cases: NCI-60 cell line screen, 48 h
EKVX NSCLC = tested on: EKVX NSCLC
K-562 leukemia = tested on: K-562 leukemia
OVCAR-4 ovarian = tested on: OVCAR-4 ovarian
SNB-19 CNS = tested on: SNB-19 CNS
SK-MEL-2 melanoma = tested on: SK-MEL-2 melanoma
KM12 colon = tested on: KM12 colon
786-0 renal = tested on: 786-0 renal
SF-539 CNS = tested on: SF-539 CNS
MOLT-4 leukemia = tested on: MOLT-4 leukemia
MDA-MB-435 = tested on: MDA-MB-435

SMILES	TGI (EKVX NSCLC)	TGI (K-562 leukemia)	TGI (OVCAR-4 ovarian)	TGI (SNB-19 CNS)	TGI (SK-MEL-2 melanoma)	TGI (KM12 colon)	TGI (786-0 renal)	TGI (SF-539 CNS)	TGI (MOLT-4 leukemia)	TGI (MDA-MB-435)	GI50 (EKVX NSCLC)	GI50 (K-562 leukemia)	GI50 (OVCAR-4 ovarian)	GI50 (SNB-19 CNS)	GI50 (SK-MEL-2 melanoma)	GI50 (KM12 colon)	GI50 (786-0 renal)	GI50 (SF-539 CNS)	GI50 (MOLT-4 leukemia)	GI50 (MDA-MB-435)
COc1cc(/C=C2/C(=O)N(C(=O)OCc3ccccc3)C(Cc3cc(OC)c(OC)c(C)c3OC)C(=O)N2Cc2ccccc2)c(OC)c(C)c1OC (centres undefined)	> 100 µM	> 100 µM	> 100 µM	> 100 µM	> 100 µM	> 100 µM	> 100 µM	> 100 µM	> 100 µM	–	–	–	–	–	–	–	–	–	–	–
CCN=C(C#N)NCC	> 100 µM	> 100 µM	> 100 µM	> 100 µM	> 100 µM	> 100 µM	> 100 µM	> 100 µM	> 100 µM	–	–	–	–	–	–	–	–	–	–	–
CCc1cccc(C)c1NC(=S)NC(=O)c1ccccc1C(=O)NC(=S)Nc1c(C)cccc1CC	> 100 µM	> 100 µM	> 100 µM	> 100 µM	> 100 µM	> 100 µM	> 100 µM	> 100 µM	> 100 µM	–	–	–	–	–	–	–	–	–	–	–
Cc1ccccc1C1CC(c2ccccc2)=NO1 (centres undefined)	> 100 µM	> 100 µM	> 100 µM	> 100 µM	> 100 µM	> 100 µM	> 100 µM	> 100 µM	> 100 µM	–	–	–	–	–	–	–	–	–	–	–
C=C(CCCO)[C@@H]1CC[C@@](C)(O)[C@H]1C	> 100 µM	> 100 µM	> 100 µM	> 100 µM	> 100 µM	> 100 µM	> 100 µM	> 100 µM	> 100 µM	–	–	–	–	–	–	–	–	–	–	–
O=C(O[C@H]1CCN2C[C@H]3C[C@H](CN4C(=O)CCC[C@H]34)[C@@H]2C1)c1ccc(O)cc1	> 100 µM	> 100 µM	> 100 µM	> 100 µM	> 100 µM	> 100 µM	> 100 µM	> 100 µM	–	> 100 µM	–	–	–	–	–	–	–	–	–	–
O=[N+]([O-])c1cc2c([N+](=O)[O-])cccc2o1	6.25 µM	–	3.63 µM	36 µM	25.4 µM	34.5 µM	5.92 µM	6.67 µM	–	53.8 µM	–	–	–	–	–	–	–	–	–	–
C=CCN(N=O)C(=O)NCCCCC(NC(C)=O)C(=O)NCc1ccccc1 (centres undefined)	> 100 µM	> 100 µM	> 100 µM	> 100 µM	> 100 µM	> 100 µM	> 100 µM	> 100 µM	> 100 µM	–	–	–	–	–	–	–	–	–	–	–
COc1ccc(CCc2cc(OC)c(O)c(OC)c2)cc1	> 100 µM	> 100 µM	> 100 µM	> 100 µM	> 100 µM	> 100 µM	> 100 µM	> 100 µM	> 100 µM	–	–	–	–	–	–	–	–	–	–	–
COc1ccc(OC)c(/C=C/c2nc(SCc3ccccc3)n(-c3ccc(Cl)cc3)n2)c1	> 100 µM	> 100 µM	> 100 µM	> 100 µM	> 100 µM	> 100 µM	> 100 µM	> 100 µM	> 100 µM	–	9.89 µM	4.23 µM	67 µM	14.3 µM	6.38 µM	4.99 µM	7.66 µM	4.25 µM	6.51 µM	–
c1ccc2c(NCCCCCCNc3cccc4ccccc34)cccc2c1	> 100 µM	> 100 µM	> 100 µM	> 100 µM	> 100 µM	> 100 µM	> 100 µM	> 100 µM	> 100 µM	–	–	–	–	–	–	–	–	–	–	–
COc1cc(/C=C2\C[C@H]3[C@@H]4CC=C5C[C@@H](OC(C)=O)CC[C@]5(C)[C@H]4CC[C@]3(C)[C@H]2OC(C)=O)ccc1OCCN1CCCC1	–	12.6 µM	–	22.5 µM	> 50 µM	17.7 µM	18.3 µM	17.3 µM	> 50 µM	27.2 µM	–	4 µM	–	10.9 µM	20.2 µM	8.81 µM	8.82 µM	8.7 µM	10.7 µM	13.3 µM
CCOC1CC2OC(=O)C1C=C2C(=O)OC (centres undefined)	> 100 µM	83.3 µM	57.4 µM	> 100 µM	65.7 µM	> 100 µM	75.9 µM	68.4 µM	48.8 µM	–	–	–	–	–	–	–	–	–	–	–
CC(=O)O[C@H]1CC2C=CC3C(CCC31)O2 (some centres undefined)	> 100 µM	> 100 µM	> 100 µM	> 100 µM	–	–	> 100 µM	–	> 100 µM	–	–	–	–	–	–	–	–	–	–	–
CC(C)C1N2CCCCC2[C@@H]2c3[nH]c4ccccc4c3CCN12 (some centres undefined)	> 100 µM	> 100 µM	> 100 µM	> 100 µM	> 100 µM	–	> 100 µM	> 100 µM	> 100 µM	–	–	–	–	–	–	–	–	–	–	–
Cn1cnc([N+](=O)[O-])c1Sc1nccc(=O)[nH]1	> 100 µM	> 100 µM	> 100 µM	> 100 µM	> 100 µM	> 100 µM	> 100 µM	> 100 µM	> 100 µM	–	–	–	–	–	–	–	–	–	–	–
Cc1ccc2nc(NC(=O)/C(=N\NC(=S)NN)C3C(=O)NC(=S)NC3=O)sc2c1	> 100 µM	> 100 µM	> 100 µM	> 100 µM	> 100 µM	> 100 µM	> 100 µM	> 100 µM	> 100 µM	–	–	–	–	–	–	–	–	–	–	–
CCOC(=O)C(C(O)c1ccc([N+](=O)[O-])cc1)P(=O)(OCC)OCC (centres undefined)	> 100 µM	> 100 µM	> 100 µM	> 100 µM	> 100 µM	> 100 µM	> 100 µM	> 100 µM	> 100 µM	–	–	–	–	–	–	–	–	–	–	–
COc1ccc2nc(NC(=O)C(=O)NNC(=O)c3ccncc3)sc2c1	> 100 µM	> 100 µM	> 100 µM	> 100 µM	–	–	> 100 µM	> 100 µM	–	–	–	–	–	–	–	–	–	–	–	–
Cc1cc(Cl)ccc1NC(=O)C(=O)C(C(=O)c1ccccc1)C1OC(=O)c2ccccc21 (centres undefined)	> 100 µM	> 100 µM	> 100 µM	> 100 µM	> 100 µM	> 100 µM	> 100 µM	> 100 µM	> 100 µM	–	–	–	–	–	–	–	–	–	–	–
CCCCCCCC(=O)[O][Hg][CH2]C1COC([CH2][Hg][O]C(=O)CCCCCCC)CO1 (centres undefined)	66.4 µM	> 100 µM	–	29.5 µM	–	30.6 µM	30.4 µM	37.4 µM	> 100 µM	25.8 µM	30.8 µM	2.09 µM	–	16.1 µM	–	16.3 µM	7.95 µM	17.5 µM	2.26 µM	12.9 µM

Reference: PubChem BioAssay (NCI)
